Tests used:
[1] = test system: E. coli S30 extract (bacterial protein synthesis); assay: E. coli S30 extract coupled transcription-translation luciferase assay (inhibition of bacterial protein synthesis); assay type: biochemical; details: % inhibition @ 1 μM, read-out: S30 IC50 (μM/% inhib.)
In short: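 Coupled transcription-translation in E. coli S30 circular-DNA extract expressing luciferase from pBESTluc, with 8-point 2-fold compound dilutions; 1 hour at 37 °C, stopped at 4 °C. Luminescence read; % inhibition versus no-inhibitor wells, no-DNA wells as background.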

[2] = target: Rabbit Reticulocyte Lysate (eukaryotic protein synthesis); assay: Rabbit reticulocyte lysate luciferase assay (inhibition of eukaryotic protein synthesis); assay type: biochemical; details: % inhibition @ 1 μM, read-out: Rabbit reticulocyte IC50 (μM/% inhib.)
In short: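 In vitro translation of luciferase control RNA in nuclease-treated rabbit reticulocyte lysate with amino acid mixture, compounds in 2-fold serial dilution, 90 minutes at 30° C. Luminescence read after luciferase reagent; % inhibition relative to water no-inhibitor controls, with no-RNA background wells.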

S. aureus (Sa) = assay: Broth microdilution minimum inhibitory concentration (MIC), CLSI; assay type: cell-based; details: growth medium with sodium bicarbonate; for MIC: Staphylococcus aureus, read-out: Sa + bicarb MIC
In short: (§1)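 Bacteria grown at 35±2 °C to 0.5 McFarland turbidity were added at 5×10^4 CFU/well to triplicate two-fold compound series (8 dilutions). Media were cation-adjusted Mueller-Hinton broth alone or with sodium bicarbonate (6.25 or 25 mM final) or heat-inactivated human serum (0–50%), per modified CLSI method.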

P. aeruginosa (Pa) = assay: as above; assay type: cell-based; details: growth medium with sodium bicarbonate; for MIC: Pseudomonas aeruginosa, read-out: Pa MIC + bicarb
In short: as §1

A. baumannn (Ab) = assay: as above; assay type: cell-based; details: A. baumannn, growth medium with sodium bicarbonate; for MIC: read-out: Ab + bicarb MIC
In short: as §1

E. faecalis (Ef) = assay: as above; assay type: cell-based; details: growth medium with sodium bicarbonate; for MIC: Enterococcus faecalis, read-out: Ef + bicarb MIC
In short: as §1

E. coli (Ec) = assay: as above; assay type: cell-based; details: growth medium with sodium bicarbonate; for MIC: Escherichia coli, read-out: E. coli + bicarb MIC
In short: as §1

SMILES | IC50 [1] [µM] | IC50 [2] [µM] | MIC (S. aureus (Sa)) [µg/mL] | MIC (P. aeruginosa (Pa)) [µg/mL] | MIC (A. baumannn (Ab)) [µg/mL] | MIC (E. faecalis (Ef)) [µg/mL] | MIC (E. coli (Ec)) [µg/mL] | Sa + bicarb MIC (S. aureus (Sa)) | Pa MIC + bicarb (P. aeruginosa (Pa)) | Ab + bicarb MIC (A. baumannn (Ab)) | Ef + bicarb MIC (E. faecalis (Ef)) | E. coli + bicarb MIC (E. coli (Ec))
CC(Cc1ccc(-n2ccc(NC(=O)N3CCN(C(=O)C4(N)CCC4)CC3)nc2=O)cc1)N1C[C@@H]2[C@@H](CN)[C@@H]2C1 (stereo partly drawn) [Compound 229] | ≥ 1 | ≥ 1 | > 32 | > 32 | > 32 | > 32 | 8 to 32 |  |  |  |  | 
CC(C)[C@@H](N)C(=O)N1CCN(C(=O)Nc2ccn(-c3ccc(CC(C)N4C[C@@H]5[C@@H](CN)[C@@H]5C4)cc3)c(=O)n2)CC1 (stereo partly drawn) [Compound 230] | ≥ 1 | ≥ 1 | 8 to 32 | > 32 | > 32 | > 32 | < 8 |  |  |  |  | 
CC(Cc1ccc(-n2ccc(NC(=O)N3CCN(C(=O)C[C@H](C)N)CC3)nc2=O)cc1)N1C[C@@H]2[C@@H](CN)[C@@H]2C1 (stereo partly drawn) [Compound 231] | ≥ 1 | ≥ 1 | < 8 | > 32 | > 32 | > 32 | < 8 |  |  |  |  | 
CC(Cc1ccc(-n2ccc(NC(=O)N3CCN(C(=O)[C@H]4C[C@@H](N)C4)CC3)nc2=O)cc1)N1C[C@@H]2[C@@H](CN)[C@@H]2C1 (stereo partly drawn) [Compound 232] | ≥ 1 | ≥ 1 | < 8 | > 32 | > 32 | > 32 | < 8 |  |  |  |  | 
CC(Cc1ccc(-n2ccc(NC(=O)N3CCN(C(=O)C(C)(C)CN)CC3)nc2=O)cc1)N1C[C@@H]2[C@@H](CN)[C@@H]2C1 (stereo partly drawn) [Compound 233] | ≥ 1 | ≥ 1 | < 8 | > 32 | > 32 | 8 to 32 | < 8 |  |  |  |  | 
CC(Cc1ccc(-n2ccc(NC(=O)N3CCN(C(=O)[C@H]4C[C@H](N)C4)CC3)nc2=O)cc1)N1C[C@@H]2[C@@H](CN)[C@@H]2C1 (stereo partly drawn) [Compound 234] | ≥ 1 | ≥ 1 | < 8 | > 32 | > 32 | > 32 | < 8 |  |  |  |  | 
CC(C)[C@@H](N)CC(=O)N1CCN(C(=O)Nc2ccn(-c3ccc(CC(C)N4C[C@@H]5[C@@H](CN)[C@@H]5C4)cc3)c(=O)n2)CC1 (stereo partly drawn) [Compound 235] | ≥ 1 | ≥ 1 | < 8 | > 32 | > 32 | > 32 | < 8 |  |  |  |  | 
CNCC(=O)N1CCN(C(=O)Nc2ccn(-c3ccc(CC(C)N4C[C@@H]5[C@@H](CN)[C@@H]5C4)cc3)c(=O)n2)CC1 (stereo partly drawn) [Compound 236] | ≥ 1 | ≥ 1 | 8 to 32 | > 32 | > 32 | > 32 | < 8 |  |  |  |  | 
CC(Cc1ccc(-n2ccc(NC(=O)N3CCN(C(=O)C(C)(C)N)CC3)nc2=O)cc1)N1CCC2(CC1)CC2CN (stereo not drawn) [Compound 237] | ≥ 1 | ≥ 1 | > 32 | > 32 | > 32 | > 32 | < 8 |  |  |  |  | 
CC(Cc1ccc(-n2ccc(NC(=O)N3CCN(C(=O)C(C)(C)N)CC3)nc2=O)cc1)N1CCC2(CC(N)C2)C1 (stereo not drawn) [Compound 238] | 0.5 to 1 | ≥ 1 |  |  |  |  |  | ++ (An MIC value (μg/mL) that is 8 μg/mL or greater and less than 32 μg/mL) | + (An MIC (μg/mL) value that is 32 μg/mL or greater) | + (An MIC (μg/mL) value that is 32 μg/mL or greater) | + (An MIC (μg/mL) value that is 32 μg/mL or greater) | +++ (An MIC value (μg/mL) that is less than 8 μg/mL)
CC(Cc1ccc(-n2ccc(NC(=O)N3CCN(C(=O)C(N)CCCN)CC3)nc2=O)cc1)N1C[C@@H]2[C@@H](CN)[C@@H]2C1 (stereo partly drawn) [Compound 239] | < 0.5 | ≥ 1 | 8 to 32 | > 32 | > 32 | > 32 | < 8 |  |  |  |  | 
CC(Cc1ccc(-n2ccc(NC(=O)N3CCN(C(=O)[C@@H](N)CCCCN)CC3)nc2=O)cc1)N1C[C@@H]2[C@@H](CN)[C@@H]2C1 (stereo partly drawn) [Compound 240] | < 0.5 | ≥ 1 | 8 to 32 | > 32 | > 32 | > 32 | < 8 |  |  |  |  | 
CC(Cc1ccc(-n2ccc(NC(=O)N3CCN(C(=O)C(C)(C)NCS(=O)(=O)O)CC3)nc2=O)cc1)N1C[C@@H]2[C@@H](CNCS(=O)(=O)O)[C@@H]2C1 (stereo partly drawn) [Compound 241] | < 0.5 | ≥ 1 | < 8 | > 32 | > 32 | 8 to 32 | < 8 |  |  |  |  | 
CC(Cc1ccc(-n2ccc(NC(=O)N3CCN(C(=O)C(C)(C)N)CC3)nc2=O)cc1)N1CC2CCC(N)CC2C1 (stereo not drawn) [Compound 242] | 0.5 to 1 | ≥ 1 |  |  |  |  |  | ++ (An MIC value (μg/mL) that is 8 μg/mL or greater and less than 32 μg/mL) | + (An MIC (μg/mL) value that is 32 μg/mL or greater) | + (An MIC (μg/mL) value that is 32 μg/mL or greater) | + (An MIC (μg/mL) value that is 32 μg/mL or greater) | +++ (An MIC value (μg/mL) that is less than 8 μg/mL)
CC(Cc1ccc(-n2ccc(NC(=O)N3CCN(C(=O)C(C)(C)N)CC3)nc2=O)cc1)N1CC2CCC(N)CC2C1 (stereo not drawn) [Compound 243] | 0.5 to 1 | ≥ 1 |  |  |  |  |  | ++ (An MIC value (μg/mL) that is 8 μg/mL or greater and less than 32 μg/mL) | + (An MIC (μg/mL) value that is 32 μg/mL or greater) | + (An MIC (μg/mL) value that is 32 μg/mL or greater) | + (An MIC (μg/mL) value that is 32 μg/mL or greater) | +++ (An MIC value (μg/mL) that is less than 8 μg/mL)
CCC(Cc1ccc(-n2ccc(NC(=O)N3CCN(C(=O)C(C)(C)N)CC3)nc2=O)cc1)N1CC2CCC(N)CC2C1 (stereo not drawn) [Compound 244] | 0.5 to 1 | ≥ 1 |  |  |  |  |  | +++ (An MIC value (μg/mL) that is less than 8 μg/mL) | + (An MIC (μg/mL) value that is 32 μg/mL or greater) | + (An MIC (μg/mL) value that is 32 μg/mL or greater) | ++ (An MIC value (μg/mL) that is 8 μg/mL or greater and less than 32 μg/mL) | +++ (An MIC value (μg/mL) that is less than 8 μg/mL)
CCC(Cc1ccc(-n2ccc(NC(=O)N3CCN(C(=O)C(C)(C)N)CC3)nc2=O)cc1)N1CC2CCC(N)CC2C1 (stereo not drawn) [Compound 245] | 0.5 to 1 | ≥ 1 |  |  |  |  |  | ++ (An MIC value (μg/mL) that is 8 μg/mL or greater and less than 32 μg/mL) | + (An MIC (μg/mL) value that is 32 μg/mL or greater) | + (An MIC (μg/mL) value that is 32 μg/mL or greater) | + (An MIC (μg/mL) value that is 32 μg/mL or greater) | +++ (An MIC value (μg/mL) that is less than 8 μg/mL)
CC(C)(N)C(=O)N1C[C@H]2CN(C(=O)Nc3ccn(-c4ccc(CN5C[C@@H]6[C@@H](N)[C@@H]6C5)cc4)c(=O)n3)C[C@H]2C1 [Compound 246] | ≥ 1 | ≥ 1 | > 32 | > 32 | > 32 | > 32 | > 32 |  |  |  |  | 

— patent US12692253B2, “Antimicrobial compounds and methods” (Curza Global, LLC, priority 2019, dated 2026)
